Source: patent US20220033397A1, “PHARMACEUTICAL COMPOUNDS AND THEIR USE AS INHIBITORS OF UBIQUITIN SPECIFIC PROTEASE 19 (USP19)” (ALMAC DISCOVERY LIMITED, priority 2018, published 2022)

Each molecule was assayed against T1, Full-length USP19 (Homo sapiens, UniProt O94966) (assay: USP19 fluorescence polarisation (FP) homogeneous assay with Ubiquitin-Lys-TAMRA substrate). Conditions: 2.5 nM USP19, 30 min pre-incubation, average of at least two duplicate experiments.
T1 construct: Full-length USP19 was purchased from Boston Biochem (E-576); purchased Boston Biochem E-576
T1 sequence (O94966 1-1318): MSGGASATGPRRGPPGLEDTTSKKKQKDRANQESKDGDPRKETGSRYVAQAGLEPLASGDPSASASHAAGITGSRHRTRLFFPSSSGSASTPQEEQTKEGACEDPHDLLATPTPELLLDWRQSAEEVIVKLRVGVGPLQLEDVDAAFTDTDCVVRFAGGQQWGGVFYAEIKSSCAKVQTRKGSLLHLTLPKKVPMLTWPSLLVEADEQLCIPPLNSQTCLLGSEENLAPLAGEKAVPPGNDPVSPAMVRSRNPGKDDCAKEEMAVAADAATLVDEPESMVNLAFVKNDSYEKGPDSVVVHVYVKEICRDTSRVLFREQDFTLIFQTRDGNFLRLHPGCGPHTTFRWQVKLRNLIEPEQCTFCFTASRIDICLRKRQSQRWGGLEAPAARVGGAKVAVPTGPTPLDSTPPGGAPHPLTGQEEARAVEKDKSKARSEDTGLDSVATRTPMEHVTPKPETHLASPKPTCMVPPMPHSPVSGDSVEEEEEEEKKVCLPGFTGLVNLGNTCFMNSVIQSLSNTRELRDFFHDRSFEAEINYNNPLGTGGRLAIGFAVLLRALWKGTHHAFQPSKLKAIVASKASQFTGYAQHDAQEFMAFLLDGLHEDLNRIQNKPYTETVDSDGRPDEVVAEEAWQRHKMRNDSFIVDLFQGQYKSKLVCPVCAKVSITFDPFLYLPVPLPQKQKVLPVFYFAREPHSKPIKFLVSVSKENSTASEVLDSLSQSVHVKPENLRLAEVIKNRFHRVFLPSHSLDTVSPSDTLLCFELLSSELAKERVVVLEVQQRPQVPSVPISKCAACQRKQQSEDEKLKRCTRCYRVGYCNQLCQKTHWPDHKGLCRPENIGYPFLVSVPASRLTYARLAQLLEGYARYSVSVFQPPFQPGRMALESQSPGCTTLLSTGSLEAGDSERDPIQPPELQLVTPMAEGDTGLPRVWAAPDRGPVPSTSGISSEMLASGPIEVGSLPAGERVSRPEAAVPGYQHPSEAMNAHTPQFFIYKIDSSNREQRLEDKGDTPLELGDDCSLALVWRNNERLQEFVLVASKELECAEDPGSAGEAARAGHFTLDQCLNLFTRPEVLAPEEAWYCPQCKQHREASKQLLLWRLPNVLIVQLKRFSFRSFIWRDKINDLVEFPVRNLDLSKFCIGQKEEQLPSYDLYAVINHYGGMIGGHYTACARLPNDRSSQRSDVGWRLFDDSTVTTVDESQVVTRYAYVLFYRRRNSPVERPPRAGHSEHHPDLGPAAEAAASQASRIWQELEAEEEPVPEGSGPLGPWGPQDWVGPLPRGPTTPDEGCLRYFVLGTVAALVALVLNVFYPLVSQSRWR
Format: biochemical
Experimental: Unless otherwise stated, all other reagents were purchased from Sigma. Enzymatic reactions were conducted in black flat bottom polystyrene 384-well plates (Nunc) and 30 μL total volume. […] Inhibitors were stored as 10 mM DMSO stocks in an inert environment (low humidity, dark, low oxygen, room temperature) using the Storage Pod System and serial dilutions were prepared in buffer just prior to the assay (from 200 μM to 2 μM, 8-18 data point curve).
Following incubation at RT for 30 min, the enzymatic reactions were initiated by dispensing the Ub substrate (500 nM, 10 μL). FP was measured every 15 min over a period of 90 min (within the linear range of the assay) using a Synergy 4 plate reader (BioTek) exciting at 530 nm and measuring the amount of parallel and perpendicular light at 575 nm. The FP signal was subsequently normalised to the no compound control.

| IC50 [µM] | Compound |
| --- | --- |
| < 0.5 | N=S1(=O)CCN(C(=O)N2CC[C@@](O)(Cn3cnc(-c4ccccc4)cc3=O)C3(CCCC3)C2)[C@H](c2cc(F)ccc2F)C1 (mixture of isomers) [Example 395] |
| < 0.5 | O=C(N1CC[C@@](O)(Cn2cnc(-c3ccccc3)cc2=O)C2(CCCC2)C1)N1CCNCC1c1cc(F)cc(F)c1 (mixture of isomers) [Example 380, 3-(((10S)-7-(2-(3,5-difluorophenyl)piper-azine-1-carbonyl)-10-hydroxy-7-azaspiro[4.5]decan-10-yl)methyl)-6-phenylpyrimidin-4(3H)-one] |
| 0.5 to 5 | C[C@H](CC1CCCCC1)C(=O)N1CCC(O)(Cn2ccncc2=O)C(C)(C)C1 (stereo partly drawn) [Example 1, 1-((1-((R)-3-Cyclohexyl-2-methylpropanoyl)-4-hydroxy-3,3-dimethylpiperidin-4-yl)methyl)pyrazin-2(1H)-one] |
| 0.5 to 5 | C[C@H](CC1CCCCC1)C(=O)N1CCC(O)(Cn2cc(-c3ccccc3)ncc2=O)C(C)(C)C1 (stereo partly drawn) [Example 2, 1-((1-((R)-3-Cyclohexyl-2-methylpropanoyl)-4-hydroxy-3,3-dimethylpiperidin-4-yl)methyl)-5-phenylpyrazin-2(1H)-one] |
| 0.5 to 5 | C[C@H](CC1CCCCC1)C(=O)N1CCC(O)(Cn2ccncc2=O)C2(CCCC2)C1 (stereo partly drawn) [Example 3, 1-((7-((R)-3-Cyclohexyl-2-methylpropanoyl)-10-hydroxy-7-azaspiro[4.5]decan-10-yl)methyl)pyrazin-2(1H)-one] |
| 0.5 to 5 | C[C@H](CC1CCC1)C(=O)N1CCC(O)(Cn2ccncc2=O)C2(CCCC2)C1 (stereo partly drawn) [Example 4, 1-((7-((R)-3-Cyclobutyl-2-methylpropanoyl)-10-hydroxy-7-azaspiro[4.5]decan-10-yl)methyl) pyrazin-2(1H)-one] |
| 5 to 50 | C[C@H](CC(F)(F)F)C(=O)N1CCC(O)(Cn2ccncc2=O)C2(CCCC2)C1 (stereo partly drawn) [Example 5, 1-((10-Hydroxy-7-((R)-4,4,4-trifluoro-2-methylbutanoyl)-7-azaspiro[4.5]decan-10-yl)methyl)pyrazin-2(1H)-one] |
| < 0.5 | C[C@H](CC1CCCCC1)C(=O)N1CCC(O)(Cn2cc(Cl)ncc2=O)C2(CCCC2)C1 (stereo partly drawn) [Example 6, 5-Chloro-1-((7-((R)-3-cyclohexyl-2-methylpropanoyl)-10-hydroxy-7-azaspiro[4.5]decan-10-yl)methyl)pyrazin-2(1H)-one] |
| < 0.5 | C[C@H](CC1CCCCC1)C(=O)N1CCC(O)(Cn2cc(Br)ncc2=O)C2(CCCC2)C1 (stereo partly drawn) [Example 7, 5-Bromo-1-((7-((R)-3-cyclohexyl-2-methylpropanoyl)-10-hydroxy-7-azaspiro[4.5]decan-10-yl)methyl)pyrazin-2(1H)-one] |
| < 0.5 | COC(=O)c1cn(CC2(O)CCN(C(=O)[C@H](C)CC3CCCCC3)CC23CCCC3)c(=O)cn1 (stereo partly drawn) [Example 8, Methyl 4-((7-((R)-3-cyclohexyl-2-methylpropanoyl)-10-hydroxy-7-azaspiro[4.5]decan-10-yl)methyl)-5-oxo-4,5-dihydropyrazine-2-carboxylate] |
| 0.5 to 5 | C[C@H](CC1CCCCC1)C(=O)N1CCC(O)(Cn2cc(C(=O)O)ncc2=O)C2(CCCC2)C1 (stereo partly drawn) [Example 9, 4-((7-((R)-3-Cyclohexyl-2-methylpropanoyl)-10-hydroxy-7-azaspiro[4.5]decan-10-yl)methyl)-5-oxo-4,5-dihydropyrazine-2-carboxylic acid] |
| < 0.5 | C[C@H](CC1CCCCC1)C(=O)N1CCC(O)(Cn2cc(C(=O)N(C)C)ncc2=O)C2(CCCC2)C1 (stereo partly drawn) [Example 10, 4-((7-((R)-3-Cyclohexyl-2-methylpropanoyl)-10-hydroxy-7-azaspiro[4.5]decan-10-yl)methyl)-N,N-dimethyl-5-oxo-4,5-dihydropyrazine-2-carboxamide] |
| < 0.5 | C[C@H](CC1CCCCC1)C(=O)N1CCC(O)(Cn2cc(C(=O)N3CCNCC3)ncc2=O)C2(CCCC2)C1 (stereo partly drawn) [Example 11, 1-((7-((R)-3-Cyclohexyl-2-methylpropanoyl)-10-hydroxy-7-azaspiro[4.5]decan-10-yl)methyl)-5-(piperazine-1-carbonyl)pyrazin-2(1H)-one] |
| 0.5 to 5 | C[C@H](CC1CCCCC1)C(=O)N1CCC(O)(Cn2cc(-c3cccnc3)ncc2=O)C(C)(C)C1 (stereo partly drawn) [Example 12, 1-((1-((R)-3-Cyclohexyl-2-methylpropanoyl)-4-hydroxy-3,3-dimethylpiperidin-4-yl)methyl)-5-(pyridin-3-yl)pyrazin-2(1H)-one] |
| 0.5 to 5 | C[C@H](CC1CCCCC1)C(=O)N1CCC(O)(Cn2cc(N3CCCC3=O)ncc2=O)C(C)(C)C1 (stereo partly drawn) [Example 13, 1-((1-((R)-3-Cyclohexyl-2-methylpropanoyl)-4-hydroxy-3,3-dimethylpiperidin-4-yl)methyl)-5-(2-oxopyrrolidin-1-yl)pyrazin-2(1H)-one] |
| 0.5 to 5 | C[C@H](CC1CCCCC1)C(=O)N1CCC(O)(Cn2cc(-c3ccncc3)ncc2=O)C(C)(C)C1 (stereo partly drawn) [Example 14, 1-((1-((R)-3-Cyclohexyl-2-methylpropanoyl)-4-hydroxy-3,3-dimethylpiperidin-4-yl)methyl)-5-(pyridin-4-yl)pyrazin-2(1H)-one] |
| 0.5 to 5 | C[C@H](CC1CCCCC1)C(=O)N1CCC(O)(Cn2cc(-c3ccn[nH]3)ncc2=O)C(C)(C)C1 (stereo partly drawn) [Example 17, 1-((1-((R)-3-Cyclohexyl-2-methylpropanoyl)-4-hydroxy-3,3-dimethylpiperidin-4-yl)methyl)-5-(1H-pyrazol-5-yl)pyrazin-2(1H)-one] |
| 0.5 to 5 | C[C@H](CC1CCCCC1)C(=O)N1CCC(O)(Cn2cc(-n3cccn3)ncc2=O)C(C)(C)C1 (stereo partly drawn) [Example 18, 1-((1-((R)-3-Cyclohexyl-2-methylpropanoyl)-4-hydroxy-3,3-dimethylpiperidin-4-yl)methyl)-5-(1H-pyrazol-1-yl)pyrazin-2(1H)-one] |
| 0.5 to 5 | C[C@H](CC1CCCCC1)C(=O)N1CCC(O)(Cn2cc(-c3cccnc3)ncc2=O)C2(CCCC2)C1 (stereo partly drawn) [Example 19, 1-((7-((R)-3-Cyclohexyl-2-methylpropanoyl)-10-hydroxy-7-azaspiro[4.5]decan-10-yl)methyl)-5-(pyridin-3-yl)pyrazin-2(1H)-one] |
| 0.5 to 5 | C[C@H](CC1CCCCC1)C(=O)N1CCC(O)(Cn2cc(-c3ccncc3)ncc2=O)C2(CCCC2)C1 (stereo partly drawn) [Example 20, 1-((7-((R)-3-Cyclohexyl-2-methylpropanoyl)-10-hydroxy-7-azaspiro[4.5]decan-10-yl)methyl)-5-(pyridin-4-yl)pyrazin-2(1H)-one] |
| 5 to 50 | Cc1cn(CC2(O)CCN(C(=O)[C@H](C)CC3CCCCC3)CC2(C)C)c(=O)cn1 (stereo partly drawn) [Example 21, 1-((1-((R)-3-Cyclohexyl-2-methylpropanoyl)-4-hydroxy-3,3-dimethylpiperidin-4-yl)methyl)-5-methylpyrazin-2(1H)-one] |
| 0.5 to 5 | C[C@H](CC1CCCCC1)C(=O)N1CCC(O)(Cn2cc(C3CC3)ncc2=O)C(C)(C)C1 (stereo partly drawn) [Example 22, 1-((1-((R)-3-Cyclohexyl-2-methylpropanoyl)-4-hydroxy-3,3-dimethylpiperidin-4-yl)methyl)-5-cyclopropylpyrazin-2(1H)-one] |
| 5 to 50 | C[C@H](CC1CCCCC1)C(=O)N1CCC(O)(Cn2cc(-c3ccccn3)ncc2=O)C(C)(C)C1 (stereo partly drawn) [Example 23, 1-((1-((R)-3-Cyclohexyl-2-methylpropanoyl)-4-hydroxy-3,3-dimethylpiperidin-4-yl)methyl)-5-(pyridin-2-yl)pyrazin-2(1H)-one] |
| 50 to 250 | C[C@H](CC(=O)N1CCC(O)(CN2CCN(c3ccccc3F)CC2=O)CC1)c1ccccc1 [Example 24, (R)-4-(2-Fluorophenyl)-1-((4-hydroxy-1-(3-phenylbutanoyl)piperidin-4-yl)methyl)piperazin-2-one] |
